According to patent publication US10761087B2, “Choroidal neovascularization suppressor or drusen formation suppressor, and method for assessing or screening for same” (Link Genomics, Inc., priority 2015, dated 2020):

Legend:
Vimentin = test: Mouse laser irradiation model: EMT assessment, Vimentin staining; format: in vivo; details: 25 mg/kg orally once a day for three weeks
Procedure: It is known that laser irradiation of a mouse ocular fundus induces choroidal angiogenesis and EMT (Reference document: Ishikawa, et al, Exp Eye Res. 2016 January; 142:19.25). So, zaltoprofen was assessed for the suppressive effect of CNV and EMT by using a mouse laser irradiation model. A zaltoprofen suspension was prepared by stirring 0.15 g of zaltoprofen (available from TOKYO CHEMICAL […] CO., LTD.) and 0.75 g of gum arabic (available from Wako Pure Chemical Industries, Ltd.) in 60 mL of water. A medium (Vehicle) was prepared by dissolving and stirring 0.75 g of gum arabic in 60 mL of water. Then, an ocular fundus of a C57BL/6J mouse (8-week old, N=13) was laser-irradiated at four points for each eye under a slit lump using a multi-color laser light coagulator. From directly after irradiation, a vehicle or a zaltoprofen solution (25 mg/kg) was orally administered once a day for three weeks, and the following assessments were conducted. For (1) and (3), the same individual was used. After three weeks from laser irradiation, mice were euthanatized by cervical dislocation, and eyeballs were extracted, and dipped and fixed in 4% paraformaldehyde phosphate buffer (available from Wako Pure Chemical Industries, Ltd.). […]

Collagen Type 1 = test: Mouse laser irradiation model: EMT assessment, Collagen Type 1 staining; format: in vivo; details: 25 mg/kg orally once a day for three weeks
Procedure: It is known that laser irradiation of a mouse ocular fundus induces choroidal angiogenesis and EMT (Reference document: Ishikawa, et al, Exp Eye Res. 2016 January; 142:19.25). So, zaltoprofen was assessed for the suppressive effect of CNV and EMT by using a mouse laser irradiation model. A zaltoprofen suspension was prepared by stirring 0.15 g of zaltoprofen (available from TOKYO CHEMICAL […] CO., LTD.) and 0.75 g of gum arabic (available from Wako Pure Chemical Industries, Ltd.) in 60 mL of water. A medium (Vehicle) was prepared by dissolving and stirring 0.75 g of gum arabic in 60 mL of water. Then, an ocular fundus of a C57BL/6J mouse (8-week old, N=13) was laser-irradiated at four points for each eye under a slit lump using a multi-color laser light coagulator. From directly after irradiation, a vehicle or a zaltoprofen solution (25 mg/kg) was orally administered once a day for three weeks, and the following assessments were conducted. For (1) and (3), the same individual was used. After three weeks from laser irradiation, mice were euthanatized by cervical dislocation, and eyeballs were extracted, and dipped and fixed in 4% paraformaldehyde phosphate buffer (Wako Pure Chemical Industries, Ltd.). […] The specimen was subjected to photography of a stained image by the anti-Collagen Type 1 antibody under a microscope, and then quantitatively assessed.

CC(C(=O)O)c1ccc2c(c1)CC(=O)c1ccccc1S2 (stereo not shown) [Zaltoprofen, zaltoprofen]
EMT in the laser irradiation model (Vimentin): suppresses EMT
Vimentin positive area (Vimentin; versus Vehicle administration group): reduced
EMT suppressive effect (Collagen Type 1 assessment) (Collagen Type 1): significant suppressive effect for EMT
Stained volume of Collagen Type 1 (Collagen Type 1; versus Vehicle administration group, p<0.05): significantly decreases
